Source: US12291529B2, “Heterocyclic GLP-1 agonists” (Gasherbrum Bio, Inc., priority 2023, dated 2025)
Values after ≈ are worked out from the molar mass of the structure shown.

Experiments:
[1] = Caco-2 permeability / efflux study; format: in vitro ADME; details: human; for Papp at 2 h, 10 μM: Caco-2, pH 7.4, 10 μM, 37° C., pH 7.4, 0.5% BSA, read-out: Caco-2 Perm; for efflux ratio at 2 h, 10 μM: Caco-2, pH 7.4, Caco-2 efflux ratio
Method: Incubations with Caco-2 cell monolayers were performed in duplicate in a 96-well Transwell plate. Transport buffer solution (HBSS, 10 mM HEPES, pH 7.4, with 0.5% BSA) containing test article (10 μM), and either the control compounds metoprolol (10 μM), cimetidine (10 μM) and erythromycin (10 μM), was added to appropriate donor wells of the apical or basolateral plate. The transport buffer with DMSO was added to appropriate wells of receiver wells. Following incubation at 37° C. for 2 hours, the cell plates were removed and 50 μL samples from both apical and basolateral sides were transferred into new 96-well plates. Subsequently, 200 μL of acetonitrile containing internal standard was added to all samples to precipitate protein prior to analysis by UPLC-MS/MS. Lucifer yellow was used as a marker to confirm the integrity of the cell monolayers after 2 hours incubation.

[2] = Rat PO PK study, Method B; format: in vivo, male Sprague Dawley (SD) rats; details: for AUC / Cmax: male, Sprague Dawley, plasma, 10% solutol HS 15
Method: Pharmacokinetics (PK) study was conducted on male Sprague Dawley (SD) rats by oral gavage (PO). Rats in PO route (n=3) were free access to food and water. […] On the day of experiment, test article was administered via oral gavage (commonly at 10, 30, or 100 mg/kg, with dose volume as 10 mL/kg). Blood samples were collected via serial bleeding at ˜8 time points from 0.25 to 24 hrs post dose. Approximate 150 μL of blood/time point was collected into KzEDTA tube via tail vein or jugular vein. Blood samples were put on wet ice and centrifuged to obtain plasma samples and plasma samples were submitted to LC-MS/MS for sample analysis. Pharmiacokinetics parameters, including Cmax, and area under the curve (AUC), etc. were calculated by non-compartmental model using WinNonlin.

FaSSIF solubility = format: physicochemical; details: FaSSIF buffer, 25 °C, fassif, thermodynamic from solid
Method: Stock solution of test article and control compound (chlorpromazine, astemizole, and phenytoin) were prepared in DMSO at 10 mM. 50 μL each of stock solutions were dried down, followed by reconstitution to 1 mM with FaSSIF buffer in the well. The incubation plate was shaked at 25° C., 1,100 rpm for 4 hours. And then, the samples were filtered by using the vacuum manifold. 10 μL aliquots from each well was transferred to a new 96-well plate and adjust the volume to 80 μL with blank buffer. Using a mixture of H2O and acetonitrile containing internal standard (1:1) to dilute the sample 100-fold, 500-fold and 2,500-fold. The samples are evaluated by LC/MS/MS analysis. All compounds were tested in singlet.

[3] = Rat IV/PO PK study, Method A; format: in vivo, male Sprague Dawley (SD) rats; details: for AUC (ng · h/mL)_free form/dose / AUC / Cmax: PO; for AUC (ng · h/mL)_free form/dose: 5 mpk, free form; for half-life / bioavailability / AUC / Cmax: male, Sprague Dawley, plasma; for half-life: 1 mg/kg, elimination half life (IV); for half-life / bioavailability: Method A; for bioavailability: PO vs IV, read-out: Bioavailablility (% F); for AUC / Cmax: 5 mg/kg, *obtained under method 3A
Method: Pharmacokinetics (PK) study was conducted on male Sprague Dawley (SD) rats by two delivery routes intravenous (IV) and/or oral gavage (PO). Rats in IV route (n=3) were free access to food and water. Rats in PO route (n=3) were fasted overnight and fed at 4 hrs post dosing. Test article was formulated in solution (10% solutol HS 15 in saline) for IV route and solution or suspension (10% solutol HS 15 in saline/water) for PO route, respectively. On the day of experiment, test article was administered via vein (e.g. foot dorsal vein) injection (commonly at 1 mg/kg and 5 mL/kg) for IV route or via oral gavage (commonly at 2 or 5 mg/kg and 5 mL/kg) for PO route, respectively. Blood samples were collected via serial bleeding at ˜8 time points from 0.083 to 24 hrs post dose. Approximate 150 μL of blood/time point was collected into K2EDTA tube via tail vein or jugular vein. Blood samples were put on wet ice and centrifuged to obtain plasma samples and plasma samples were submitted to LC-MS/MS for sample analysis. Pharmacokinetics parameters, including elimination half life (t1/2) (IV), area under the curve (AUC) and oral bioavailability (F %), etc. were calculated by non-compartmental model using WinNonlin.

GLP-1 Receptor = GLP-1 Receptor (Homo sapiens, UniProt P43220); experiment: GLP-1R agonist cAMP stimulation assay (HEK293/GLP1R/CRE-LUC cells, Cisbio cAMP dynamic 2 kit); format: cell-based
Sequence of GLP-1 Receptor (P43220 24-463, species assumed): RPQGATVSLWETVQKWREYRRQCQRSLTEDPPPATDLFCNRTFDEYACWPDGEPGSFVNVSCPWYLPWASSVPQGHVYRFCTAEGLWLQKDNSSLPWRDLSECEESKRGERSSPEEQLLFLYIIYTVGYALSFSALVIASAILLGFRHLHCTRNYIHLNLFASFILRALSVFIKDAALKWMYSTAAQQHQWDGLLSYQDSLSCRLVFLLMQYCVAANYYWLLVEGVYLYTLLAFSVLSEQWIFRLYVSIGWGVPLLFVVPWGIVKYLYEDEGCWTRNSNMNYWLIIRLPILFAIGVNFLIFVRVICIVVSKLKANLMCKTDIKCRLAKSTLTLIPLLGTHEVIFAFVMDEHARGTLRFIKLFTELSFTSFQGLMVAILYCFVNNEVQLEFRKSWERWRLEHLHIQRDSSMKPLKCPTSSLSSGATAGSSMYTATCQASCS
Outline: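 cAMP was measured by HTRF (d2/cryptate, 1 h RT, 665 and 615 nm). Beforehand, compounds in half-log series were incubated 30 min at 37 °C with GLP-1R/CRE-Luc HEK293 cells (1000 per well) in IBMX (0.5 mM)-containing DPBS/BSA. Activity scaled between vehicle and maximal control.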

[4] = Table 3, HEK293/GLP1R/CRE-LUC cells, 30 min

Structure (SMILES) | Papp at 2 h, 10 μM [1] | efflux ratio at 2 h, 10 μM [1] | AUC ([2]; 30 mg/kg) | Cmax ([2]; 30 mg/kg) | AUC ([2]; 100 mg/kg) | Cmax ([2]; 100 mg/kg) | solubility at 4 h (FaSSIF solubility) | AUC (ng · h/mL)_free form/dose [3] | half-life [3] | bioavailability [3] | AUC [3] | Cmax [3] | EC50 (GLP-1 Receptor; Table 4) | EC50 (GLP-1 Receptor; [4]) | rat PK exposure compared with C-5 and C-6 ([2]; 5 to 100 mg/kg) | rat PK dose proportionality of exposure ([2]; free form, same formulation)
Cc1cc(-n2nc3c(c2-n2ccn(-c4ccc5c(cnn5C)c4F)c2=O)[C@H](C)N(C(=O)c2cc4cc([C@H]5CCOC(C)(C)C5)ccn4c2C2(c4noc(=O)[nH]4)CC2)CC3)cc(C2CC2)c1F [Compound C-6, reference compound] | 0.16 ×10⁻⁶ cm/s | 26 | 58800 ng·h/mL | 7540 ng/mL | 86000 ng·h/mL | 7480 ng/mL | 4.5 µM (≈ 4.03 µg/mL) | 4,276/5 mpk ng · h/mL | 3.1 h | 47% | 4280 ng·h/mL | 744 ng/mL | 0.0675 nM | – | – | –
CCS(=O)(=NC)c1ccc(-n2ccn(-c3c4c(nn3-c3cc(C)c(F)c(C)c3)CCN(C(=O)c3cc5cc(C6CCOCC6)ccc5n3[C@@]3(c5noc(=O)[nH]5)C[C@@H]3C)[C@H]4C)c2=O)c(F)c1 (single isomer, unassigned) [Compound 149] | 0.33 ×10⁻⁶ cm/s | 26 | – | – | – | – | 2.04 µM (≈ 1.85 µg/mL) | 4,276/5 mpk ng · h/mL | 1.6 h | 32% | – | – | 0.023 nM | 0.023 nM | – | –
Cc1cc(-n2nc3c(c2-n2ccn(-c4ccc(S(=N)(=O)C5CC5)cc4F)c2=O)[C@H](C)N(C(=O)c2cc4cc([C@H]5CCOC(C)(C)C5)ccc4n2[C@@]2(c4noc(=O)[nH]4)C[C@@H]2C)CC3)cc(C)c1F (single isomer, unassigned) [Compound 181] | 0.24 ×10⁻⁶ cm/s | 38 | – | – | – | – | – | 6,097/5 mpk ng · h/mL | 1.66 h | 30% | – | – | 0.014 nM | 0.018 nM | – | –
CN=S(=O)(c1ccc(-n2ccn(-c3c4c(nn3-c3cc(C)c(F)c(C)c3)CCN(C(=O)c3cc5cc(C6CCOCC6)ccc5n3[C@@]3(c5noc(=O)[nH]5)C[C@@H]3C)[C@H]4C)c2=O)c(F)c1)C1CC1 (single isomer, unassigned) [Compound 221] | 0.34 ×10⁻⁶ cm/s | 38.5 | – | – | – | – | 4.05 µM (≈ 3.72 µg/mL) | – | – | – | – | – | 0.031 nM | 0.03 nM | – | –
CN=S(=O)(c1ccc(-n2ccn(-c3c4c(nn3-c3cc(C)c(F)c(C)c3)CCN(C(=O)c3cc5cc([C@H]6CCOC(C)(C)C6)ccc5n3[C@@]3(c5noc(=O)[nH]5)C[C@@H]3C)[C@H]4C)c2=O)c(F)c1C)C1CC1 (single isomer, unassigned) [Compound 195] | 0.22 ×10⁻⁶ cm/s | 12 | 51100 ng·h/mL | 3910 ng/mL | 102000 ng·h/mL | 7690 ng/mL | 7.2 µM (≈ 6.91 µg/mL) | 9,545/5 mpk ng · h/mL | 4.3 h | 14% | 5000 ng·h/mL | 774 ng/mL | 0.018 nM | 0.018 nM | higher exposure than C-5 and C-6 | good rat PK dose proportionality from 5 to 100 mg/kg
CCS(=O)(=O)c1ccc(-n2ccn(-c3c4c(nn3-c3cc(C)c(F)c(C)c3)CCN(C(=O)c3cc5cc(C6CCOCC6)ccc5n3[C@@]3(c5noc(=O)[nH]5)C[C@@H]3C)[C@H]4C)c2=O)cc1 [Compound C-1, reference compound] | 0.126 ×10⁻⁶ cm/s | 51.7 | – | – | – | – | 4 µM (≈ 3.5 µg/mL) | – | – | – | – | – | 0.022 nM | – | – | –
CNS(=O)(=O)c1ccc(-n2ccn(-c3c4c(nn3-c3cc(C)c(F)c(C)c3)CCN(C(=O)c3cc5cc(C6CCOCC6)ccc5n3[C@@]3(c5noc(=O)[nH]5)C[C@@H]3C)[C@H]4C)c2=O)cc1 [Compound C-3, reference compound] | 0.05 ×10⁻⁶ cm/s | 78.1 | – | – | – | – | 6.45 µM (≈ 5.65 µg/mL) | – | – | – | – | – | – | – | – | –
